# Source: patent US9376418B2, “Substituted pyridine spleen tyrosine kinase (SYK) inhibitors” (Merck Sharp & Dohme Corp., priority 2012, dated 2016)
# Target: T1, recombinant human GST-SYK (Homo sapiens, UniProt P43405)
# T1 construct: purchased Carna Biosciences 08-176
# Assay: Homogeneous Time-Resolved Fluorescence (HTRF) assay for the recombinant human Syk enzyme
# Type: biochemical
# Conditions: HTRF assay, recombinant human GST-SYK; IC50 given as class symbols; read-out: rhSYK Activity
# Procedure, shortened: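 Phosphorylation of a biotinylated Syk substrate peptide (250 nM) was run for 45 min at room temperature with 25 μM ATP and 5 mM Mg. It followed a 10-min preincubation of GST-hSYK ([…]) with compound in 15 mM Tris-HCl pH 7.5, 2 mM DTT. Product was detected by time-resolved fluorescence using a europium anti-phosphotyrosine antibody plus SA-APC in EDTA-containing quench buffer.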
row,Structure (SMILES),IC50 [nM]
1,"CC(=O)NCCNc1ccc(-c2cc(C)cc(Nc3nccc(C(F)(F)F)n3)c2)cn1 [Example 7.37, N-(2-{[5-(3-methyl-5-{[4-(trifluoromethyl)pyrimidin-2-yl]amino}phenyl)pyridin-2-yl]amino}ethyl)acetamide]",< 100
2,"Cc1cc(Nc2nccc(C(F)(F)F)n2)cc(-c2ccncc2)c1 [Example 2.124, N-(3-methyl-5-pyridin-4-ylphenyl)-4-(trifluoromethyl)pyrimidin-2-amine]",< 100
3,"Cc1cc(Nc2nccc(C(F)(F)F)n2)cc(-c2cncc(C(C)(O)C(F)(F)F)c2)c1 (centres unmarked) [Example 2.75, 1,1,1-trifluoro-2-[5-(3-methyl-5-{[4-(trifluoromethyl)pyrimidin-2-yl]amino}phenyl)pyridin-3-yl]propan-2-ol]",< 100
4,"Cc1ccnc(Nc2cccc(-c3ccc(N[C@H]4CC[C@H](C(=O)O)CC4)nc3)c2)n1 [Example 2.107, trans-4-[(5-{3-[(4-methylpyrimidin-2-yl)amino]phenyl}pyridin-2-yl)amino]cyclohexanecarboxylic acid]",< 100
5,"CNC(=O)CN(C)c1ccc(-c2cc(C)cc(Nc3nccc(C(F)(F)F)n3)c2)cn1 [Example 7.28, N,N~2~-dimethyl-N~2~-[5-(3-methyl-5-{[4-(trifluoromethyl)pyrimidin-2-yl]amino}phenyl)pyridin-2-yl]glycinamide]",< 100
6,"Cc1cc(Nc2nccc(C(F)(F)F)n2)cc(-c2ccc(N[C@@H]3CCC(=O)NC3)nc2)c1 [Example 7.51, (5R)-5-{[5-(3-methyl-5-{[4-(trifluoromethyl)pyrimidin-2-yl]amino}phenyl)pyridin-2-yl]amino}piperidin-2-one]",< 100
7,"Cc1cc(Nc2nccc(C(F)(F)F)n2)cc(-c2ccc(N[C@@H](CC(C)C)C(=O)O)nc2)c1 [Example 7.111, N-[5-(3-methyl-5-{[4-(trifluoromethyl)pyrimidin-2-yl]amino}phenyl)pyridin-2-yl]-L-leucine]",< 100
8,"Cc1cc(Nc2nccc(C(F)(F)F)n2)cc(-c2ccc(N[C@@H](CCO)C(=O)O)nc2)c1 [Example 7.71, N-[5-(3-methyl-5-{[4-(trifluoromethyl)pyrimidin-2-yl]amino}phenyl)pyridin-2-yl]-L-homoserine]",< 100
9,"Cc1cc(Nc2nccc(C3CC3)n2)cc(-c2ccc(CCC(=O)O)nc2)c1 [Example 2.101, 3-(5-{3-[(4-cyclopropylpyrimidin-2-yl)amino]-5-methylphenyl}pyridin-2-yl)propanoic acid]",< 100
10,"CC(=O)Nc1cc(Nc2nccc(C(F)(F)F)n2)cc(-c2ccc(N3CCNC(=O)C3)nc2)c1 [Example 7.5, N-(3-[6-(3-oxopiperazin-1-yl)pyridin-3-yl]-5-{[4-(trifluoromethyl)pyrimidin-2-yl]amino}phenyl)acetamide]",< 100
11,"Cc1cc(Nc2nccc(C(F)(F)F)n2)cc(-c2cc(CCC(=O)O)ccn2)c1 [Example 2.22, 3-[2-(3-methyl-5-{[4-(trifluoromethyl)pyrimidin-2-yl]amino}phenyl)pyridin-4-yl]propanoic acid]",< 100
12,"O=C(O)[C@@H]1CCN1c1ccc(-c2cc(F)cc(Nc3ncc(F)c(C4CC4)n3)c2)cn1 [Example 7.160, (2S)-1-(5-{3-[(4-cyclopropyl-5-fluoropyrimidin-2-yl)amino]-5-fluorophenyl}pyridin-2-yl)azetidine-2-carboxylic acid]",< 100
13,"Cc1cc(Nc2nccc(C(F)(F)F)n2)cc(-c2ccc(NC(C)c3ccccn3)nc2)c1 (centres unmarked) [Example 7.19, N-(3-methyl-5-{6-[(1-pyridin-2-ylethyl)amino]pyridin-3-yl}phenyl)-4-(trifluoromethyl)pyrimidin-2-amine]",100 to 1000
14,"Cc1cc(Nc2nccc(C(F)(F)F)n2)cc(-c2ccc(N[C@@H](C(=O)O)C(C)C)nc2)c1 [Example 7.90, N-[5-(3-methyl-5-{[4-(trifluoromethyl)pyrimidin-2-yl]amino}phenyl)pyridin-2-yl]-D-valine]",< 100
15,"Cc1cc(Nc2nccc(C(F)(F)F)n2)cc(-c2ccc(NC(C)(C)C(=O)O)nc2)c1 [Example 7.7, 2-methyl-N-[5-(3-methyl-5-{[4-(trifluoromethyl)pyrimidin-2-yl]amino}phenyl)pyridin-2-yl]alanine]",< 100
16,"Cc1cc(Nc2nccc(C(F)(F)F)n2)cc(-c2ccc(N[C@@H](Cc3c[nH]c4ccccc34)C(=O)O)nc2)c1 [Example 7.100, N-[5-(3-methyl-5-{[4-(trifluoromethyl)pyrimidin-2-yl]amino}phenyl)pyridin-2-yl]-L-tryptophan]",< 100
17,"OCCN(CCO)c1cccc(-c2cc(Nc3nccc(C(F)(F)F)n3)cc(N3CCOCC3)c2)n1 [Example 1.4, 2,2′-{[6-(3-morpholin-4-yl-5-{[4-(trifluoromethyl)pyrimidin-2-yl]amino}phenyl)pyridin-2-yl]imino}diethanol]",100 to 1000
18,"Cc1cc(Nc2nccc(C(F)(F)F)n2)cc(-c2ccc(NCC(N)=O)nc2)c1 [Example 7.31, N~2~-[5-(3-methyl-5-{[4-(trifluoromethyl)pyrimidin-2-yl]amino}phenyl)pyridin-2-yl]glycinamide]",< 100
19,"CCCN1CCCN(c2ccc(-c3cc(C)cc(Nc4nccc(C(F)(F)F)n4)c3)cn2)CC1 [Example 7.60, N-{3-methyl-5-[6-(4-propyl-1,4-diazepan-1-yl)pyridin-3-yl]phenyl}-4-(trifluoromethyl)pyrimidin-2-amine]",100 to 1000
20,"Cc1cc(Nc2nccc(C(F)(F)F)n2)cc(-c2ccc(N[C@H](CC(N)=O)C(=O)O)nc2)c1 [Example 7.93, N~2~-[5-(3-methyl-5-{[4-(trifluoromethyl)pyrimidin-2-yl]amino}phenyl)pyridin-2-yl]-D-asparagine]",< 100

# Next, values leading:
row,IC50 [nM],Structure (SMILES)
1,< 100,"CC(=O)NCCNc1cc(-c2cc(C)cc(Nc3nccc(C(F)(F)F)n3)c2)ccn1 [Example 15.54, N-(2-{[4-(3-methyl-5-{[4-(trifluoromethyl)pyrimidin-2-yl]amino}phenyl)pyridin-2-yl]amino}ethyl)acetamide]"
2,< 100,"Cc1cc(Nc2nccc(C(F)(F)F)n2)cc(-c2ccnc(N3CCN(C=O)CC3)c2)c1 [Example 15.24, 4-[4-(3-methyl-5-{[4-(trifluoromethyl)pyrimidin-2-yl]amino}phenyl)pyridin-2-yl]piperazine-1-carbaldehyde]"
3,< 100,"Cc1cc(Nc2nccc(C(F)(F)F)n2)cc(-c2ccnc(NC3(CO)CCCC3)c2)c1 [Example 15.50, (1-{[4-(3-methyl-5-{[4-(trifluoromethyl)pyrimidin-2-yl]amino}phenyl)pyridin-2-yl]amino}cyclopentyl)methanol]"
4,< 100,"Cc1cc(Nc2nccc(C(F)(F)F)n2)cc(-c2ccc(NS(=O)(=O)CC(=O)O)nc2)c1 [Example 8.2, {[5-(3-Methyl-5-{[4-(trifluoromethyl)pyrimidin-2-yl]amino}phenyl)pyridin-2-yl]sulfamoyl}acetic acid]"
5,< 100,"Cc1cc(Nc2nccc(C(F)(F)F)n2)cc(-c2cncc(NCCO)c2)c1 [Example 15.22, 2-{[5-(3-Methyl-5-{[4-(trifluoromethyl)pyrimidin-2-yl]amino}phenyl)pyridin-3-yl]amino}ethanol]"
6,100 to 1000,Cc1cc(Nc2ncc(Cl)c(C(F)(F)F)n2)cc(-c2cccnc2)c1 [Example 20.3]
7,100 to 1000,"Cc1cc(Nc2nccc(C(F)(F)F)n2)cc(-c2ccnc(N3CCC4(CCN(C)C4=O)CC3)c2)c1 [Example 15.31, 2-methyl-8-[4-(3-methyl-5-{[4-(trifluoromethyl)pyrimidin-2-yl]amino}phenyl)pyridin-2-yl]-2,8-diazaspiro[4.5]decan-1-one]"
8,< 100,Cc1cc(Nc2nccc(C(F)(F)F)n2)cc(-c2cncc(NCC3CC3)c2)c1 [Example 15.11]
9,< 100,"COC(=O)CC(=O)Nc1ccc(-c2cc(C)cc(Nc3nccc(C(F)(F)F)n3)c2)cn1 [Example 8.3, methyl 3-{[5-(3-methyl-5-{[4-(trifluoromethyl)pyrimidin-2-yl]amino}phenyl)pyridin-2-yl]amino}-3-oxopropanoate]"
10,< 100,"Cc1cc(Nc2nccc(C(F)F)n2)cc(-c2ccc(C(C)(O)C3CCC(C(=O)O)CC3)nc2)c1 (single isomer, unassigned) [Example 9.29, trans-4-{(1R or 1S)-1-[5-(3-{[4-(difluoromethyl)pyrimidin-2-yl]amino}-5-methylphenyl)pyridin-2-yl]-1-hydroxyethyl}cyclohexanecarboxylic acid]"
11,< 100,"Cc1cc(Nc2nccc(C(F)(F)F)n2)cc(-c2ccc(C(=O)NC3CCS(=O)(=O)C3)nc2)c1 (centres unmarked) [Example 16.54, N-(1,1-dioxidotetrahydrothiophen-3-yl)-5-(3-methyl-5-{[4-(trifluoromethyl)pyrimidin-2-yl]amino}phenyl)pyridine-2-carboxamide]"
12,< 100,"Cc1cc(Nc2nccc(C(F)(F)F)n2)cc(-c2ccnc([C@]3(O)CC[C@@H](O)CC3)c2)c1 [Example 9.3, Cis-1-[4-(3-methyl-5-{[4-(trifluoromethyl)pyrimidin-2-yl]amino}phenyl)pyridine-2-yl]cyclohexane-1,4-diol]"
13,< 100,"Cc1cc(Nc2nccc(C(F)(F)F)n2)cc(-c2ccc([C@]3(O)CC[C@@H](O)CC3)nc2)c1 [Example 9.58, cis-1-[5-(3-methyl-5-{[4-(trifluoromethyl)pyrimidin-2-yl]amino}phenyl)pyridin-2-yl]cyclohexane-1,4-diol]"
14,100 to 1000,"Cc1cc(Nc2nccc(C(F)(F)F)n2)cc(-c2ccc(S(=O)(=O)NC3CC3)nc2)c1 [Example 21.2, N-cyclopropyl-5-(3-methyl-5-{[4-(trifluoromethyl)pyrimidin-2-yl]amino}phenyl)pyridine-2-sulfonamide]"
15,< 100,"Cc1cc(Nc2nccc(C(F)(F)F)n2)cc(-c2ccc(C(=O)N3C[C@H](O)C[C@H]3C)nc2)c1 [Example 16.41, (3R,5R)-5-methyl-1-{[5-(3-methyl-5-{[4-(trifluoromethyl)pyrimidin-2-yl]amino}phenyl)pyridin-2-yl]carbonyl}pyrrolidin-3-ol]"
